ChEMBL document CHEMBL1201862, “PubChem BioAssay data set” (2004)
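The compound was tested at five concentrations on cells cultured in 96-well plates, with a 48-hour exposure period. Here, GI50 denotes the concentration required for 50% inhibition of growth.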 Active and inactive are the calls of the source. No stated cut-off is given here; in the data, active = GI50 up to about 1.1 µM and inactive = higher.

Columns and labels:
Assay in all cases: NCI anticancer screen, dose series, 48 h
[1] = system: SNB-75
[2] = system: NCI-H460
[3] = system: MDA-MB-435
[4] = system: M14
[5] = system: SF-268
[6] = system: K562
[7] = system: CAKI-1
[8] = system: IGROV-1
[9] = system: MDA-MB-231
[10] = system: T47D
[11] = system: CCRF-CEM
[12] = system: ACHN
[13] = system: 786-0
[14] = system: NCI-H522
[15] = system: HL-60
[16] = system: UO-31
[17] = system: HT-29
[18] = system: LOX IMVI
[19] = system: HOP-62
[20] = system: KM12
[21] = system: SN12C
[22] = system: HCC 2998
[23] = system: SR
[24] = system: OVCAR-8
[25] = system: A498
[26] = system: MCF7
[27] = system: BT-549
[28] = system: NCI/ADR-RES
[29] = system: U-251
[30] = system: HOP-92
[31] = system: Malme-3M
[32] = system: OVCAR-3
[33] = system: A549
[34] = system: TK-10
[35] = system: NCI-H226
[36] = system: DU-145
[37] = system: UACC-62
[38] = system: RPMI-8226
[39] = system: SK-OV-3
[40] = system: Hs-578T
[41] = system: OVCAR-4
[42] = system: EKVX
[43] = system: SK-MEL-2
[44] = system: SW-620
[45] = system: SF-539
[46] = system: RXF 393
[47] = system: SK-MEL-5
[48] = system: NCI-H23
[49] = system: SF-295
[50] = system: SNB-19
[51] = system: HCT-15
[52] = system: MDA-N
[53] = system: SK-MEL-28
[54] = system: MOLT-4
[55] = system: PC-3
[56] = system: UACC-257
[57] = system: HCT-116
[58] = system: COLO 205
[59] = system: OVCAR-5

With `CC(Oc1ccccc1)C(=O)NN` (centres undefined) as the compound, how does the GI50 [1] read?
The GI50 was > 100 µM (inactive).

What about the GI50 [2] of the same compound?
The GI50 was > 100 µM (inactive).

And the GI50 [3]?
The GI50 was > 100 µM (inactive).

And the GI50 [4]?
Its GI50 is > 100 µM (inactive).

And the GI50 [5]?
Its GI50 is > 100 µM (inactive).

And the GI50 [6]?
Its GI50 is > 100 µM (inactive).

What about the GI50 [7] of the same compound?
The GI50 was > 100 µM (inactive).

What about the GI50 [8] of the same compound?
Its GI50 is > 100 µM (inactive).

What about the GI50 [9] of the same compound?
Its GI50 is 66.8 µM (inactive).

What about the GI50 [10] of the same compound?
The GI50 was > 100 µM (inactive).

And the GI50 [11]?
The GI50 was > 100 µM (inactive).

What about the GI50 [12] of the same compound?
Its GI50 is > 100 µM (inactive).

And the GI50 [13]?
The GI50 was > 100 µM (inactive).

And the GI50 [14]?
The GI50 was 79.3 µM (inactive).

And the GI50 [15]?
The GI50 was > 100 µM (inactive).

What about the GI50 [16] of the same compound?
Its GI50 is > 100 µM (inactive).

What about the GI50 [17] of the same compound?
The GI50 was > 100 µM (inactive).

And the GI50 [18]?
Its GI50 is > 100 µM (inactive).

What about the GI50 [19] of the same compound?
The GI50 was > 100 µM (inactive).

What about the GI50 [20] of the same compound?
The GI50 was > 100 µM (inactive).

And the GI50 [21]?
The GI50 was > 100 µM (inactive).

What about the GI50 [22] of the same compound?
The GI50 was > 100 µM (inactive).

What about the GI50 [23] of the same compound?
Its GI50 is > 100 µM (inactive).

And the GI50 [24]?
The GI50 was > 100 µM (inactive).

What about the GI50 [25] of the same compound?
The GI50 was > 100 µM (inactive).

And the GI50 [26]?
The GI50 was > 100 µM (inactive).

What about the GI50 [27] of the same compound?
Its GI50 is > 100 µM (inactive).

What about the GI50 [28] of the same compound?
Its GI50 is > 100 µM (inactive).

And the GI50 [29]?
Its GI50 is > 100 µM (inactive).

And the GI50 [30]?
Its GI50 is > 100 µM (inactive).

And the GI50 [31]?
Its GI50 is > 100 µM (inactive).

What about the GI50 [32] of the same compound?
The GI50 was > 100 µM (inactive).

And the GI50 [33]?
Its GI50 is > 100 µM (inactive).

What about the GI50 [34] of the same compound?
Its GI50 is > 100 µM (inactive).

What about the GI50 [35] of the same compound?
Its GI50 is > 100 µM (inactive).

And the GI50 [36]?
The GI50 was > 100 µM (inactive).

And the GI50 [37]?
Its GI50 is > 100 µM (inactive).

What about the GI50 [38] of the same compound?
The GI50 was > 100 µM (inactive).

What about the GI50 [39] of the same compound?
Its GI50 is > 100 µM (inactive).

What about the GI50 [40] of the same compound?
Its GI50 is 34.8 µM (inactive).

And the GI50 [41]?
Its GI50 is > 100 µM (inactive).

And the GI50 [42]?
The GI50 was > 100 µM (inactive).

And the GI50 [43]?
Its GI50 is > 100 µM (inactive).

And the GI50 [44]?
Its GI50 is > 100 µM (inactive).

What about the GI50 [45] of the same compound?
The GI50 was > 100 µM (inactive).

And the GI50 [46]?
Its GI50 is > 100 µM (inactive).

And the GI50 [47]?
The GI50 was > 100 µM (inactive).

What about the GI50 [48] of the same compound?
The GI50 was > 100 µM (inactive).

And the GI50 [49]?
Its GI50 is > 100 µM (inactive).

What about the GI50 [50] of the same compound?
The GI50 was > 100 µM (inactive).

What about the GI50 [51] of the same compound?
Its GI50 is greater than 100 µM.

What about the GI50 [52] of the same compound?
The GI50 was > 100 µM (inactive).

What about the GI50 [53] of the same compound?
Its GI50 is > 100 µM (inactive).

And the GI50 [54]?
Its GI50 is > 100 µM (inactive).

And the GI50 [55]?
The GI50 was > 100 µM (inactive).

And the GI50 [56]?
Its GI50 is > 100 µM (inactive).

And the GI50 [57]?
The GI50 was > 100 µM (inactive).

And the GI50 [58]?
The GI50 was > 100 µM (inactive).

What about the GI50 [59] of the same compound?
The GI50 was > 100 µM (inactive).
